Laboratory results from patent US9029409B2, “Isoxazolines as therapeutic agents” (AbbVie Inc., priority 2011, dated 2015).

molecular target: T1, recombinant human MMP13 catalytic domain (CD) (Homo sapiens, UniProt P45452); experiment: MMP-13 catalytic domain FRET enzyme assay; format: biochemical; conditions: recombinant human MMP-13 catalytic domain
T1 construct: catalytic domain (CD) construct encompassing residues 20-274 (SWISS-PROT P45452); made in house
Method: A recombinant human MMP13 catalytic domain (CD) construct encompassing residues 20-274 (SWISS-PROT P45452) was generated by synthetic gene methods and bacterial expression. MMP-13 activity assays were performed using the recombinant human MMP-13 CD at a 0.4 nM concentration and the fluorogenic substrate (QXL-520)-K-P-L-A˜Nva-Dap(5-FAM)-A-R-NH2 (Anaspec cat #60554-01, San Jose, Calif.) at a 0.25 μM concentration in assay buffer containing […], pH 7.5, 10 mM CaCl2, 150 mM NaCl, 0.05% Brij 35. The assay is based on the cleavage of this substrate by MMP-13, resulting in decrease of FRET between the donor-acceptor pair and subsequent fluorescence enhancement. The assays were carried out in 384-well plates (Greiner cat #781076, Germany) for 60 min at RT. After the incubation period, the reaction was quenched by the addition of 5 μL of 500 mM EDTA (100 mM final concentration) (Rankem, Cat #E0120, India) mixed well and the rate of substrate hydrolysis was determined by monitoring change in fluorescence at excitation and emission wavelengths of 485 nm and 535 nm respectively. Fluorescence was measured on a Victor V5 plate reader (Perkin Elmer, Turku, Finland). The test compounds used for assessing the potency of inhibition of MMP-13 activity were dissolved in DMSO (final DMSO concentration in the assay was 5%). Selected compounds were also screened against full length MMP13 (R&D Systems (Cat. No. 511-MM-010), Minneapolis, Minn.) at 2 nM concentration using the same fluorogenic substrate mentioned above. The enzyme was activated using 1 m Mp-aminophenylmercuric acetate—APMA (Cat #A-9563, Sigma, Germany).
Data analysis: The percent inhibition of the enzyme activity in presence of test compounds were calculated using the equation, percent (%) Inhibition=100−[(Fi/Fc)*100] where Fc is the fluorescence corresponding to initial enzyme activity and Fi is the fluorescence corresponding to the enzyme activity in presence of inhibitor. The IC50 values were calculated by fitting the dose-response data to a sigmoidal curve fitting equation using Graph Pad prism software (Version 5, La Jolla, Calif.).
MMP13 Catalytic Domain (CD) Potency of the Described Examples Determined Using Time Resolved Fluorescence Resonance Energy Transfer (FRET) Enzyme Assays: […]

| IC50 [µM] | SMILES |
| --- | --- |
| < 0.01 | Cc1nc(C(=O)NCc2ccc(F)c(Cl)c2)cc(C2=NO[C@H]([C@H]3CC[C@H](NC(=O)[C@H](C)O)CC3)C2)n1 |
| 0.1 to 1 | COc1cc(CNC(=O)c2cc(C3=NOC(C(=O)NCCO)C3)nc(C)n2)ccc1F (centres unmarked) |
| > 1 | COc1cc(CNC(=O)c2cc(C3=NO[C@H](c4ccc(CO)cc4)C3)nc(C)n2)ccc1F |
| 0.01 to 0.1 | COc1cc(CNC(=O)c2cc(C3=NOC(CC4CCN(C(C)=O)CC4)C3)nc(C)n2)ccc1F (centres unmarked) |
| 0.01 to 0.1 | Cc1nc(C(=O)NCc2ccc3c(c2)NC(=O)CC3)cc(C2=NO[C@H]([C@H]3CO[C@H](CO)CO3)C2)n1 |
| 0.01 to 0.1 | COc1cc(CNC(=O)c2cc(C3=NO[C@H]([C@H]4CO[C@H](CNC(=O)C(C)(C)O)CO4)C3)nc(C)n2)ccc1F |
| 0.01 to 0.1 | COc1cc(CNC(=O)c2cc(C3=NOC(C4CCN(C(=O)NC(C)C)CC4)C3)nc(C)n2)ccc1F (centres unmarked) |
| < 0.01 | COc1cc(CNC(=O)c2cc(C3=NO[C@H]([C@H]4CO[C@H](C(N)=O)CO4)C3)nc(C)n2)ccc1F |
| 0.01 to 0.1 | Cc1nc(C(=O)NCc2ccc(F)c(C)c2)cc(C2=NOC(c3ccccn3)C2)n1 (centres unmarked) |
| > 1 | COc1cc(CNC(=O)c2cc(C3=NOC(C(N)=O)C3)nc(C)n2)ccc1F (centres unmarked) |
| 0.01 to 0.1 | COc1cc(CNC(=O)c2cc(C3=NOC(c4ncccn4)C3)nc(C)n2)ccc1F (centres unmarked) |
| 0.01 to 0.1 | Cc1nc(C(=O)NCc2ccncc2)cc(C2=NO[C@H]([C@H]3CO[C@H](CO)CO3)C2)n1 |
| 0.1 to 1 | Cc1nc(C(=O)NCc2ccnc3ccccc23)cc(C2=NO[C@H]([C@H]3CO[C@H](CO)CO3)C2)n1 |
| < 0.01 | COc1cc(CNC(=O)c2cc(C3=NOC(C4CCN(C(=O)N(C)CCO)CC4)C3)nc(C)n2)ccc1F (centres unmarked) |
| < 0.01 | COc1cc(CNC(=O)c2cc(C3=NOC(C4CCN(C(=O)N(C)C)CC4)C3)nc(C)n2)ccc1F (centres unmarked) [drawing 876] |
| 0.01 to 0.1 | COc1ccc(CNC(=O)c2cc(C3=NO[C@H]([C@H]4CO[C@H](CO)CO4)C3)nc(C)n2)cc1 |
| 0.01 to 0.1 | COC[C@@H]1CO[C@@H]([C@@H]2CC(c3cc(C(=O)NCc4ccc(F)c(OC)c4)nc(C)n3)=NO2)CO1 |
| 0.01 to 0.1 | Cc1nc(C(=O)NCc2ccc(F)c(Cl)c2)cc(C2=NO[C@H]([C@H]3CO[C@H](CO)CO3)C2)n1 [drawing 1069] |
| 0.01 to 0.1 | COc1cc(CNC(=O)c2cc(C3=NOC(C4CCN(C(C)=O)CC4)C3)nc(C)n2)ccc1F (centres unmarked) |

| IC50 [µM] | SMILES |
| --- | --- |
| 0.1 to 1 | Cc1nc(C(=O)NCc2ccc(F)c(C)c2)cc(C2=NO[C@H]([C@H]3CO[C@H](CO)CO3)C2)n1 |
| 0.01 to 0.1 | COc1cc(CNC(=O)c2cc(C3=NO[C@H]([C@H]4CO[C@H](CNC(=O)N(C)C)CO4)C3)nc(C)n2)ccc1F |
| > 1 | Cc1nc(C(=O)NCc2ccc(F)c(Cl)c2)cc(C2=NO[C@H]([C@H]3CO[C@@H](CO)CO3)C2)n1 [drawing 924] |
| 0.01 to 0.1 | CC(=O)N1CCC(C2CC(c3cc(C(=O)NCc4ccc(F)cc4)nc(C)n3)=NO2)CC1 (centres unmarked) |
| 0.01 to 0.1 | CCNC(=O)N1CCC(C2CC(c3cc(C(=O)NCc4ccc(F)c(OC)c4)nc(C)n3)=NO2)CC1 (centres unmarked) [drawing 877] |
| < 0.01 | COc1cc(CNC(=O)c2cc(C3=NOC([C@H]4CC[C@H](NS(N)(=O)=O)CC4)C3)nc(C)n2)ccc1F (some centres unmarked) |
| 0.01 to 0.1 | Cc1nc(C(=O)NCc2ccc(F)c(C)c2)cc(C2=NO[C@@H]([C@H]3CC[C@H](NC(=O)[C@H](C)O)CC3)C2)n1 |
| 0.01 to 0.1 | COc1cc(CNC(=O)c2cc(C3=NO[C@H]([C@H]4CC[C@H](NC(C)=O)CC4)C3)nc(C)n2)ccc1F [drawing 1032] |
| < 0.01 | Cc1nc(C(=O)NCc2ccc(F)c(C)c2)cc(C2=NO[C@H]([C@H]3CC[C@H](NC(=O)[C@H](C)O)CC3)C2)n1 |
| < 0.01 | CCS(=O)(=O)N1CCC(C2CC(c3cc(C(=O)NCc4ccc(F)c(OC)c4)nc(C)n3)=NO2)CC1 (centres unmarked) |
| < 0.01 | COc1cc(CNC(=O)c2cc(C3=NOC(C4CCCCC4)C3)nc(C)n2)ccc1F (centres unmarked) |
| 0.01 to 0.1 | Cc1nc(C(=O)NCc2ccc(F)cc2)cc(C2=NOC(C3CCN(C(=O)CO)CC3)C2)n1 (centres unmarked) |
| 0.01 to 0.1 | Cc1nc(C(=O)NCc2ccc(F)c(F)c2)cc(C2=NOC(C3CCN(C(=O)CO)CC3)C2)n1 (centres unmarked) |
| 0.01 to 0.1 | COc1cc(CNC(=O)c2cc(C3=NO[C@H]([C@@H]4CO[C@@H](C(=O)O)CO4)C3)nc(C)n2)ccc1F |
| > 1 | COc1cc(CNC(=O)c2cc(C3=NOC(CN4CCC(CO)C4)C3)nc(C)n2)ccc1F (centres unmarked) |
| 0.01 to 0.1 | COc1cc(CNC(=O)c2cc(C3=NOC(c4ccc(CO)nc4)C3)nc(C)n2)ccc1F (centres unmarked) |
| < 0.01 | COc1cc(CNC(=O)c2cc(C3=NO[C@H]([C@H]4CC[C@H](NC(=O)[C@H](C)O)CC4)C3)nc(C)n2)ccc1F |
| < 0.01 | CC(=O)N[C@H]1CC[C@H](C2CC(c3cc(C(=O)NCc4ccc(F)c(C)c4)nc(C)n3)=NO2)CC1 (some centres unmarked) |
| < 0.01 | COc1cc(CNC(=O)c2cc(C3=NOC(C4CCN(S(=O)(=O)C(C)C)CC4)C3)nc(C)n2)ccc1F (centres unmarked) |

Continued, molecule first:

| SMILES | IC50 [µM] |
| --- | --- |
| COc1cc(CNC(=O)c2cc(C3=NO[C@@H](c4ccc(=O)n(C)c4)C3)nc(C)n2)ccc1F | 0.1 to 1 |
| CNC(=O)Cn1nc(C2CC(c3cc(C(=O)NCc4ccc(F)c(OC)c4)nc(C)n3)=NO2)ccc1=O (centres unmarked) | 0.01 to 0.1 |
| CNC(=O)NCC(=O)N1CCC(C2CC(c3cc(C(=O)NCc4ccc(F)c(OC)c4)nc(C)n3)=NO2)CC1 (centres unmarked) | 0.01 to 0.1 |
| Cc1nc(C(=O)NCc2ccc3c(c2)NC(=O)CO3)cc(C2=NOC([C@H]3CC[C@H](NC(=O)[C@H](C)O)CC3)C2)n1 (some centres unmarked) | < 0.01 |
| Cc1nc(C(=O)NCc2ccc(F)cc2)cc(C2=NOC(c3ccccn3)C2)n1 (centres unmarked) | 0.01 to 0.1 |
| COc1cc(CNC(=O)c2cc(C3=NOC(c4ccccc4)C3)c(=O)n(C)n2)ccc1F (centres unmarked) | 0.01 to 0.1 |
| CNC(=O)c1ccc(C2CC(c3cc(C(=O)NCc4ccc(F)c(OC)c4)nc(C)n3)=NO2)nc1 (centres unmarked) | 0.01 to 0.1 |
| CNC(=O)c1ccc(C2CC(c3cc(C(=O)NCc4ccc(F)c(OC)c4)nc(C)n3)=NO2)nn1 (centres unmarked) | 0.01 to 0.1 |
| COc1cc(CNC(=O)c2cc(C3=NOC(c4ccc(C(C)(C)O)cc4)C3)nc(C)n2)ccc1F (centres unmarked) | 0.01 to 0.1 |
| COc1ccc(CNC(=O)c2cc(C3=NO[C@@H](c4ccc(OCCO)cc4)C3)nc(C)n2)cc1 | 0.01 to 0.1 |
| COc1cc(CNC(=O)c2cc(C3=NO[C@H](c4ccc(=O)n(C5CC5)c4)C3)nc(C)n2)ccc1F | < 0.01 |
| COc1ccc(CNC(=O)c2cc(C3CC(c4ccccc4)=NO3)nc(C)n2)cc1 (centres unmarked) | 0.1 to 1 |
| COc1cc(CNC(=O)c2cc(C3=NOC(c4ccn(CC(=O)N(C)C)c(=O)c4)C3)nc(C)n2)ccc1F (centres unmarked) | 0.01 to 0.1 |
| COc1cc(CNC(=O)c2cc(C3=NOC(c4cccnc4)C3)nc(C)n2)ccc1F (centres unmarked) | < 0.01 |
| Cc1nc(C(=O)NCc2ccc(F)c(F)c2)cc(C2=NOC(c3ccc(C#N)nn3)C2)n1 (centres unmarked) | 0.01 to 0.1 |
| COc1cc(CNC(=O)c2cc(C3=NOC(c4ccc(-c5cnco5)cn4)C3)nc(C)n2)ccc1F (centres unmarked) | < 0.01 |
| COc1ccc(C2CC(c3ccnc(C(=O)NCc4cccc(OC)c4)c3)=NO2)cc1 (centres unmarked) | 0.01 to 0.1 |
| COc1cc(CNC(=O)c2cc(C3=NOC(c4cccc(C(N)=O)c4)C3)nc(C)n2)ccc1F (centres unmarked) | < 0.01 |
| COc1cccc(CNC(=O)c2cc(C3=NOC(c4ccccn4)C3)nc(C)n2)c1 (centres unmarked) | 0.01 to 0.1 |
| COc1ccc(CNC(=O)c2cc(C3=NOC(C)(c4ccc(CO)cc4)C3)nc(C)n2)cc1 (centres unmarked) | 0.1 to 1 |
| Cc1nc(C(=O)NCc2ccc(F)cc2)cc(C2=NOC([C@H]3CC[C@H](NC(=O)[C@H](C)O)CC3)C2)n1 (some centres unmarked) | 0.01 to 0.1 |
| COc1cc(CNC(=O)c2cc(C3=NOC(C4CCN(S(=O)(=O)c5cn(C)cn5)CC4)C3)nc(C)n2)ccc1F (centres unmarked) | < 0.01 |
| COc1cc(CNC(=O)c2cc(C3=NOC(c4ccn(CC(=O)N(C)OC)c(=O)c4)C3)nc(C)n2)ccc1F (centres unmarked) | 0.01 to 0.1 |
| COc1cc(CNC(=O)c2cc(C3=NOC(c4ccc(N5CCC(CO)CC5)cc4)C3)nc(C)n2)ccc1F (centres unmarked) | 0.01 to 0.1 |
| COc1cc(CNC(=O)c2cc(C3=NOC(C4CCN(S(=O)(=O)c5cn(C)c(C)n5)CC4)C3)nc(C)n2)ccc1F (centres unmarked) | < 0.01 |
| COc1ccc(CNC(=O)c2cc(C3=NOC(c4ccccn4)C3)nc(C)n2)cc1 (centres unmarked) | 0.1 to 1 |
| COc1cc(CNC(=O)c2cc(C3=NOC(c4ccc(-c5nc(C)no5)cn4)C3)nc(C)n2)ccc1F (centres unmarked) | < 0.01 |
| COc1cc(CNC(=O)c2cc(C3=NOC(c4cnc(S(C)(=O)=O)cn4)C3)nc(C)n2)ccc1F (centres unmarked) | 0.01 to 0.1 |
| COc1ccc(CNC(=O)c2cc(C3=NO[C@H](c4ccc(OCCO)cc4)C3)nc(C)n2)cc1 | < 0.01 |
| COc1cc(CNC(=O)c2cc(C3=NOC(c4cnc5[nH]ncc5c4)C3)nc(C)n2)ccc1F (centres unmarked) | 0.01 to 0.1 |
